Assay results published in PubChem BioAssay (NCI).
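These data come from cells grown in 96-well plates and exposed to compound for 48 hours at five concentrations. The concentration for 50% growth inhibition is given as GI50. TGI: concentration producing complete growth inhibition.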

Legend:
Test in all cases: NCI tumour cell line growth inhibition, 48 h
[1] = system: A498 renal
[2] = system: A549 NSCLC
[3] = system: IGROV1 ovarian
[4] = system: K-562 leukemia
[5] = system: M14 melanoma
[6] = system: SK-MEL-2 melanoma
[7] = system: SK-MEL-5 melanoma
[8] = system: SR leukemia
[9] = system: SW-620 colon
[10] = system: UACC-62 melanoma

Row | SMILES | TGI [1] [µM] | TGI [2] [µM] | TGI [3] [µM] | TGI [4] [µM] | TGI [5] [µM] | TGI [6] [µM] | TGI [7] [µM] | TGI [8] [µM] | TGI [9] [µM] | TGI [10] [µM] | GI50 [1] [µM] | GI50 [2] [µM] | GI50 [3] [µM] | GI50 [4] [µM] | GI50 [5] [µM] | GI50 [6] [µM] | GI50 [7] [µM] | GI50 [8] [µM] | GI50 [9] [µM] | GI50 [10] [µM]
1 | O=C(N/C(=C\c1cc(Cl)ccc1Cl)c1nc2[nH]c(=S)[nH]c(=O)c2[nH]1)c1ccccc1 | > 100 | > 100 | > 70.6 | > 62.6 | > 56.5 | > 100 | > 100 | > 100 | 36.5 | > 92.9 | – | – | – | – | – | – | – | – | – | –
2 | COc1ccc(C2=CSc3cc(Cl)c(C)cc3S(=O)(=O)N2C(C)=O)cc1 | > 100 | 65 | > 100 | > 100 | > 100 | > 100 | 48.5 | > 100 | > 100 | 48 | 59.5 | 27.4 | 36.2 | 27.8 | 49.1 | 63.4 | 19.9 | 14.6 | 38.7 | 13.1
3 | CN(C)CCCNC1=C(Cl)C(=O)c2ccccc2C1=O | 25.4 | 32.5 | 4.12 | 6.03 | 3.38 | 4.15 | 2.96 | 7.61 | 3.42 | 3.19 | 12.7 | 16.1 | 2.01 | 2.47 | 1.83 | 2.11 | 1.6 | 2.8 | 1.69 | 1.7
4 | COc1ccc(NC(=O)c2cc(OC)cc(OC)c2)cc1 | > 100 | > 100 | > 100 | > 100 | > 100 | > 100 | > 100 | > 100 | > 100 | > 100 | – | – | – | – | – | – | – | – | – | –
5 | O=C(/C=C/c1ccccc1Cl)c1ccc(Cl)c(Cl)c1 | 33.9 | 40.8 | 25 | 67.9 | 33.4 | 36.9 | 36.1 | 54.8 | 28.3 | 45.6 | – | – | – | – | – | – | – | – | – | –
6 | CCCCCCCC(=O)SCC/C=C/[C@@H]1CC(=O)NCc2cccc(n2)C2=N[C@@](C)(CS2)C(=O)N[C@@H](C(C)C)C(=O)N1 | 6.2 | > 33.3 | 15.2 | > 33.3 | > 33.3 | 15.6 | 8.35 | > 33.3 | > 33.3 | 4.88 | 0.394 | 0.723 | 0.224 | 0.658 | 1.32 | 1.03 | 0.924 | 0.498 | 6.33 | 0.192
7 | CN(C)c1ccc(-c2cc(-c3ccc(Nc4nc(Nc5ccc(Cl)cc5)nc(Nc5ccc(Cl)cc5)n4)cc3)no2)cc1 | 22.7 | 27.5 | 15 | 5.3 | 13.3 | 11 | 9.07 | 1.74 | > 100 | 62.2 | 4.38 | 5.12 | 2.06 | 1.72 | 2.62 | 2.87 | 2.07 | – | 6.28 | 17.1
